The values below come from ChEMBL document CHEMBL1153779, “Tyrosinase-inhibitory constituents from the twigs of Cinnamomum cassia” (J Nat Prod, 2009).

The IC50 is the midpoint of a concentration-inhibition curve. A lower IC50 goes with greater potency.

Each structure is given as a SMILES string.

The assay concerns the target T1, Tyrosinase (Agaricus bisporus, UniProt O42713).
T1 sequence (O42713 whole entry): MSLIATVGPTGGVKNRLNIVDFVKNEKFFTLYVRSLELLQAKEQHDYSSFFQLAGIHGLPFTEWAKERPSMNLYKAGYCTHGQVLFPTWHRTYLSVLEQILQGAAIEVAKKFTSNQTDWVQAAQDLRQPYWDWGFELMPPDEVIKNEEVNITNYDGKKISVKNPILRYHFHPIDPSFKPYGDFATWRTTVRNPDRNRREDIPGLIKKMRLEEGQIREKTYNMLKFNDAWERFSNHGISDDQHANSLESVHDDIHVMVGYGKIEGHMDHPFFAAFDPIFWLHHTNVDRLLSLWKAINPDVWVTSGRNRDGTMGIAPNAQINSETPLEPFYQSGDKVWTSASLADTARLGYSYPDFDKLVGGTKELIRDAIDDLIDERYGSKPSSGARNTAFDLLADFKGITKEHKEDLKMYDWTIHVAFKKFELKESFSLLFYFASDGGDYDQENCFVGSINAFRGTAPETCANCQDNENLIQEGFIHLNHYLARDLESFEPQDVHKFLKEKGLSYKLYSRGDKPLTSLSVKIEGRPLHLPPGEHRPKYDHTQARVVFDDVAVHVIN
Description: Inhibition of mushroom tyrosinase after 10 mins by spectrophotometry
For the molecule `O=C(O)/C=C/c1ccccc1O` [O-COUMARIC ACID], the IC50 worked out at 670 µM.
For `O[C@@H]1[C@@H](O)[C@@H](OC/C=C/c2ccccc2)O[C@H](CO[C@@H]2OC[C@H](O)[C@H](O)[C@H]2O)[C@H]1O` [ROSAVIN], the IC50 is above 10000 µM.
With `O=C/C=C/c1ccccc1` the figure was 520 µM; with `OC[C@H]1O[C@@H](OCCc2ccccc2)[C@H](O)[C@@H](O)[C@@H]1O[C@@H]1OC[C@](O)(CO)[C@H]1O`, 710 µM; with `COc1cc(/C=C/C=O)ccc1O` [CONIFERYL ALDEHYDE], 240 µM.
With `COc1ccccc1/C=C/C=O` the figure was 420 µM; with `COC(=O)CCc1ccccc1O[C@@H]1O[C@H](CO)[C@@H](O)[C@H](O)[C@H]1O` [METHYL DIHYDROMELILOTOSIDE], 630 µM; with `Oc1ccc(O)cc1` [HYDROQUINONE], 4210 µM.
The value for `OC/C=C/c1ccccc1` [CINNAMIC ALCOHOL] was above 10000 µM; that for `O=C(O)CCc1ccccc1O[C@@H]1O[C@H](CO)[C@@H](O)[C@H](O)[C@H]1O` [DIHYDROMELILOTOSIDE] was 570 µM; that for `O=C/C=C/c1ccccc1O` [2-HYDROXYCINNAMALDEHYDE] was 470 µM.
Molecule `O=C(CCc1ccccc1O)O[C@@H]1O[C@H](CO)[C@@H](O)[C@H](O)[C@H]1O` [DIHYDROCINNACASSIDE] gave an IC50 of 670 µM.
`C[C@@H]1O[C@@H](OC[C@H]2O[C@@H](Oc3ccccc3/C=C/CO)[C@H](O[C@@H]3[C@@H](OCc4ccccc4)O[C@@H](CO[C@@H]4OC[C@](O)(CO)[C@H]4O)[C@H](O)[C@H]3O)[C@@H](O)[C@@H]2O)[C@H](O)[C@H](O)[C@H]1O` [CINNACASSINOL] had an IC50 of 940 µM.
Turning to `COc1c(O)cccc1/C=C/C=O`, the IC50 was 260 µM.
